#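 The compound was tested at five concentrations on cells cultured in 96-well plates, with a 48-hour exposure period. GI50 is the concentration that inhibits growth by half. TGI denotes the concentration required for complete inhibition of growth.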
# Columns and labels:
# Test in all cases: DTP human tumour cell line panel, 48 h
# [1] = tested on: DMS 273 small cell lung
# [2] = tested on: TK-10 renal
# [3] = tested on: XF 498 CNS
# [4] = tested on: RPMI-8226 leukemia
# [5] = tested on: SNB-78 CNS
# [6] = tested on: LXFL 529 NSCLC
# [7] = tested on: MCF7 breast
# [8] = tested on: BT-549 breast
# [9] = tested on: HS 578T breast
# [10] = tested on: T-47D breast
Compound,TGI [1] [µM],TGI [2] [µM],TGI [3] [µM],TGI [4] [µM],TGI [5] [µM],TGI [6] [µM],TGI [7] [µM],TGI [8] [µM],TGI [9] [µM],TGI [10] [µM],GI50 [2] [µM],GI50 [4] [µM],GI50 [5] [µM],GI50 [6] [µM]
CN(C)/C(N)=N/C(N)=S,> 100,> 100,> 100,> 100,> 100,> 100,–,–,–,–,–,–,–,–
C=C1C(=O)OC2/C=C(\C)C3OC3/C=C(/C(=O)OC)C(OC(C)=O)C(OC(=O)C(C)(O)C(C)OC(C)=O)C12 (stereo not given),10.6,4.21,5.6,7.9,12.4,2.36,2.67,2.37,29.7,36.8,–,–,–,–
CC1=C(C(=O)Nc2ccccc2C)C(c2ccc(C3C(C(=O)Nc4ccccc4C)=CNC=C3C(=O)Nc3ccccc3C)cc2)C(C(=O)Nc2ccccc2C)=C(C)N1,47.3,> 100,41.6,> 73,96.4,26.6,–,–,–,–,–,–,–,–
Cc1cc2c(cc1C)[n+](=O)c(C(=O)/C=C/c1ccccc1Cl)c(C)n2[O-],> 100,57.3,42.1,> 100,> 100,34.6,–,–,–,–,–,–,–,–
O=c1/c(=C/c2ccc3c(c2)OCO3)sc2nnc(-c3ccco3)n12,> 100,> 100,> 100,> 100,> 100,> 100,–,–,–,–,–,–,–,–
COc1cc(-c2cc(CCC(=O)Nc3ccccc3[N+](=O)[O-])n(-c3ccc([N+](=O)[O-])cc3[N+](=O)[O-])n2)ccc1O,> 10,> 100,> 100,> 100,> 100,> 100,–,–,–,–,> 100,> 100,> 100,> 10
COC(=O)NN1C(C)=C(C(=O)OC)C2(CCOC2=O)C1(C)O (stereo not given),> 100,> 100,> 100,> 100,> 100,> 100,–,–,–,–,–,–,–,–

# From PubChem BioAssay (NCI)
